For assay [1], the system named is AgnB2 Triple (T42P/A102N/Q573M). The experiment in a line: Aminoacylation assay, AgnB2 Triple mutant. The note with it: 4 nM enzyme, 0.63 mM ATP, 28 °C, pH 7.4. Format: biochemical, Agrobacterium radiobacter K84.
Assay [2] has as its system LeuRSAt Triad (P45T/N105A/M633Q). The experiment in a line: Aminoacylation assay, LeuRSAt Triad mutant. The note with it: TM84 concentrations as high as 500 nM, 4 nM enzyme, 0.63 mM ATP. Format: biochemical, A. tumefaciens.
Assay [3] has as its target T1, AgnB2 Triple + Q413R mutant (Agrobacterium radiobacter, UniProt B9JQP8, A102N/Q413R/Q573M/T42P).
T1 sequence (B9JQP8 1-814 T42P/A102N/Q573M/Q413R): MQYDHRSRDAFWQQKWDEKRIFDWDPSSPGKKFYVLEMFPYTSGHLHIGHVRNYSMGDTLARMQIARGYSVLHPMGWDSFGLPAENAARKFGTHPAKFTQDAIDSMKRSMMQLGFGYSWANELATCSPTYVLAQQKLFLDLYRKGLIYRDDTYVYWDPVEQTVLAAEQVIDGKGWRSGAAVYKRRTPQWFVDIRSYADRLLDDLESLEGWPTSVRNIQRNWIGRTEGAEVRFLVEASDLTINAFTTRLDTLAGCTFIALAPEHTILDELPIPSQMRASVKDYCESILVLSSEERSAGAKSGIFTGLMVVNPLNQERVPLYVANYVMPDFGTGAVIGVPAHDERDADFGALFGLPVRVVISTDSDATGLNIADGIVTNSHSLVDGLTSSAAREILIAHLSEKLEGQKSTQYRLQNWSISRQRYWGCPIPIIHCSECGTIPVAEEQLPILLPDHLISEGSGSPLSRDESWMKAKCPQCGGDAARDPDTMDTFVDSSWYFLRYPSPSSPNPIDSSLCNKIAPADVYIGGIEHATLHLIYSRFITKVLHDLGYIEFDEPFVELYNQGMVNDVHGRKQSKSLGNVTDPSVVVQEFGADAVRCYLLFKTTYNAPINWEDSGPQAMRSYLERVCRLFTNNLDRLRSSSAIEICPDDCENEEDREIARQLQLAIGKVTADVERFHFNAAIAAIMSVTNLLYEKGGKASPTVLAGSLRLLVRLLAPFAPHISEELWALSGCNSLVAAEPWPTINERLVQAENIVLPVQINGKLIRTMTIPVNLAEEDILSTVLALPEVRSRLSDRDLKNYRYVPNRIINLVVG
The experiment in a line: Aminoacylation assay, AgnB2 Triple + Q413R mutant. Format: biochemical, Agrobacterium radiobacter K84. The note with it: fixed ATP concentration (0.675 mM), saturating leucine. The method, then: (§1) Aminoacylation activities of AgnB2, LeuRSAt and their mutants were measured in 50 mM HEPES buffer (pH 7.4) containing 20 mM KCl, 25 mM MgCl2, 25 mM β-ME, 4 mM ATP, 500 μM [3,4,5-^3H] L-leucine (20 μCi/mmole), 5 μg/ml inorganic pyrophosphatase, 1 μM BSA, 10 μM of active in vitro transcribed tRNA^Leu and enzymes in the range of 2–8 nM. Reactions were pre-incubated with or without substrate and/or inhibitor and then carried out at 28 °C (37 °C-LeuRSHp). Aliquots of the reaction (5–10 μl) were quenched on 3 mM filter pads (Whatman, GE Healthcare) presoaked with 5% trichloroacetic acid (TCA). The pads were washed thrice with 5% TCA and 90% ethanol at 4 °C and then dried. The amount of Leu-tRNA^Leu was then quantified using scintillation counting. Each reaction was performed in triplicate and analyzed using Kaleidagraph (for Km and kcat determinations) or GraphPad Prism software (for IC50 determination).

The target in assay [4] is LeuRSAt (leucyl-tRNA synthetase). The note with it: wt LeuRSAt, aminoacylation; read-out: Ki app; cited from earlier work.
Assay [5] has as its target T2, wt AgnB2 (LeuRS) (Agrobacterium radiobacter, UniProt B9JQP8). The experiment in a line: Aminoacylation assay, wt AgnB2. The note with it: for Ki: 2 nM enzyme.
In assay [6] the test system is agrobacterial IleRS. The note with it: cited from earlier work.
Assay [7] deals with LeuRSAt (leucyl-tRNA synthetase). The experiment in a line: Aminoacylation assay, wt LeuRSAt. Format: biochemical, A. tumefaciens. The note with it: 20 nM TM84, 4 nM enzyme, 0.63 mM ATP, 28 °C, pH 7.4. The method, then: as §1, with “Aminoacylation activities of AgnB2, LeuRSAt and their mutants were measured in 50 mM HEPES buffer (pH 7.4) containing 20 mM KCl, 25 mM MgCl2, 25 mM β-ME, 4 mM ATP, 500 μM [3,4,5-^3H]” left out

The target in assay [8] is T3, LeuRS H. pylori (LeuRSHp) (Helicobacter pylori, UniProt P56457).
T3 construct: made in house
Kind of assay: Aminoacylation assay, LeuRSHp. Format: biochemical. The note with it: aminoacylation of agrobacterium tRNALeu, 37 °C, 4 nM enzyme. The method, then: as §1

Assay [9] relates to AgnB2 Triple Q413R. Kind of assay: Isothermal titration calorimetry, AgnB2 Triple Q413R mutant. The note with it: ITC. Format: binding, Agrobacterium radiobacter K84. The method, then:
(§2) Typically, about 4–8 μM active protein solution and a 10-fold higher ligand concentration were prepared in buffer containing 50 mM HEPES (pH 7.4), 20 mM KCl 10 mM MgCl2 and 1 mM β-ME. The titrations were carried out in triplicate at 28 °C. The data was then analyzed using Origin software (version 7) and fitted to a one-site or a two-site binding model to obtain the binding affinity (Kd), stoichiometry (N) and enthalpy (ΔH) for each complex.

The target of assay [10] is T2, wt AgnB2 (LeuRS). Kind of assay: Isothermal titration calorimetry, wt AgnB2. The note with it: ITC; for Kd: 28 °C. Format: binding, Agrobacterium radiobacter K84. The method, then: as §2
The subject of assay [11] is LeuRSAt Triad (P45T/N105A/M633Q). Kind of assay: Isothermal titration calorimetry, LeuRSAt Triad mutant. Format: binding, A. tumefaciens. The note with it: ITC. The method, then:
as §2
Background: In ITC the heat of successive injections is recorded.

T3 sequence (P56457 whole entry): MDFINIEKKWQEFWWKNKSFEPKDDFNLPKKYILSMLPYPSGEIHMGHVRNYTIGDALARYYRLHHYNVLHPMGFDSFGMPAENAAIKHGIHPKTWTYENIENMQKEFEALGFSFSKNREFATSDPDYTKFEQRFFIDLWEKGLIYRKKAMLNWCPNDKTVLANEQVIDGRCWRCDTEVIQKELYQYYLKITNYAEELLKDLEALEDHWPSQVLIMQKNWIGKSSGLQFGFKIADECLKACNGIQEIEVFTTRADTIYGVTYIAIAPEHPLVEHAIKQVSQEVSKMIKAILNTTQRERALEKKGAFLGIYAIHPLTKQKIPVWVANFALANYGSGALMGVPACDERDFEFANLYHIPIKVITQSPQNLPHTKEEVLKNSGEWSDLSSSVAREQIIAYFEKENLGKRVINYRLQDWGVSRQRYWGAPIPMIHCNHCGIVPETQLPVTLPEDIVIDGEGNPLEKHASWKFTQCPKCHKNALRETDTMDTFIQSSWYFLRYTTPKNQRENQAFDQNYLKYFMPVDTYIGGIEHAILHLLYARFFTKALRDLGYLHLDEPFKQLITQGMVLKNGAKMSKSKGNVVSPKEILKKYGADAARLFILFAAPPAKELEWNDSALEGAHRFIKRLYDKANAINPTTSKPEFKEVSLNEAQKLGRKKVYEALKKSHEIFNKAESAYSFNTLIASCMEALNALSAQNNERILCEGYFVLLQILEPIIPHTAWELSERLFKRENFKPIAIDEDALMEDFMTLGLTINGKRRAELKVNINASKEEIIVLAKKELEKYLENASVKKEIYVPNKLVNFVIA

As a reminder, the IC50 is the concentration needed to halve the response being measured. As usually defined, the Kd is the free concentration of one partner at which half of the binding sites on the other are occupied at equilibrium, for simple one-to-one binding. Low readings indicate a tighter complex, high ones a looser complex. As to `CC(C)[C@@H](O)[C@H](O)C(=O)NP(=O)(O)OC[C@@H]1C[C@H](O)[C@H](n2cnc3c(N)ncnc32)O1` [TM84], the activity remaining is given as 13% in [1] and 4% in [7]. In addition, in [2], the “effect on aminoacylation activity” value is on record as “almost no effect”. Also, the values for the half-inhibitory concentration (IC50) in [3], in assay [5] and in assay [8] were 2900 nM, 61300 nM and 34 ± 1.14 nM, respectively. Moreover, the Ki was 0.3 ± 0.1 nM in assay [4]; 1380 ± 280 nM in [5] (apparent TM84 Ki, varying leucine, aminoacylation, fixed ATP 1 mM, 28 °C, pH 7.4); 4720 ± 750 nM in assay [5] (apparent TM84 inhibition constant (Ki), varying ATP, aminoacylation, fixed leucine, AgnB2·tRNALeu pre-incubated, 28 °C, pH 7.4). Moreover, in [5] (4 nM enzyme, 0.63 mM ATP, 28 °C, pH 7.4), the “change in aminoacylation activity” value is given as “No change”. Also, the “mode of inhibition with regards to ATP and leucine” value in [5] (aminoacylation, Lineweaver-Burk) is “weak competitive inhibitor”. The “inhibition of agrobacterial IleRS” value in assay [6] was “does not inhibit”. The “binding of TM84 to enzyme·tRNALeu complex tighter than wt AgnB2” value in assay [9] (AgnB2 Triple Q413R·tRNALeu complex) is given as “sixfold”. The “binding of TM84 to enzyme alone tighter than wt enzyme” value in assay [9] (enzyme alone) was 1.3 fold. For the same compound, in assay [10] (binary binding, AgnB2 vs LeuRSAt (ref 23)), the “reduction in AgnB2-binding affinity compared with LeuRSAt” value was determined as 6.9 fold. Moreover, the “decrease in affinity, AgnB2·tRNA·TM84 compared with LeuRSAt·tRNA·TM84 complex” value in assay [10] (ternary complex) is reported as roughly 330 fold. Besides, the Kd in assay [10] (ligand binding to AgnB2 alone, pH 7.4) came to 1050 nM; in assay [10] (TM84 binding to AgnB2 with pre-bound tRNA, AgnB2 with pre-bound tRNA), 332 nM. In addition, the “decrease in TM84 binding affinity compared with LeuRSAt, enzyme alone” value in assay [11] (LeuRSAt Triad alone) is 10 fold. For the same compound, the “decrease in TM84 binding affinity compared with LeuRSAt, enzyme pre-incubated with tRNALeu” value in assay [11] (LeuRSAt Triad pre-incubated with tRNALeu) is on record as 28 fold.

The values are drawn from PMC5059758, “Structural characterization of antibiotic self-immunity tRNA synthetase in plant tumour biocontrol agent” (Nature Communications, 2016).
